Experiments:
HepG2 cells [1] = conditions: 48 hrs
Procedure: HepG2 cells were seeded in a 96-well plate at a density of 1×10^4 cells per well and incubated in a culture medium supplemented with 10% FBS for 16 hrs. After the 96-well plate was washed with physiological saline, ethyl alcohol, which was diluted in a culture medium in amounts of 0, 0.5, 1.0, 1.5 and 2.0% (v/v), was added to each well in which HepG2 cells were cultured. After incubation for 48 hrs, the cell number in each well was measured using a SRB method.
The culture medium was removed, and the 96-well plate was washed with physiological saline. The cells in each well were then fixed with 70% acetone for 20 min. The fixed cells were dried, stained with an SRB solution for 30 min, and washed with a 1% acetic acid solution five times to eliminate unbound SRB. After the cells were dried again, 10 mM Tris was added to the cells to dissolve cellular proteins and unbound SRB, and absorbance was measured at 562 nm using a spectrophotometer. The results were expressed as a percentage by comparing the absorbance of each well treated with ethyl alcohol with that of a control well not treated with ethyl alcohol (FIG. 2).

HepG2 cells [2] = experiment: Restoration of growth of cells whose growth is suppressed by ethyl alcohol (SRB method); type: cell-based, human; conditions: HepG2, 1.5% ethyl alcohol for 24 hrs
Procedure: After the 96-well plate was washed with physiological saline, ethyl alcohol, which was diluted in culture medium in 1.5% (v/v), was added to each well in which HepG2 cells were cultured. Cell damage was induced using ethyl alcohol for 24 hrs. Thereafter, the culture medium containing ethyl alcohol was removed, and the extract from L. caerulea fruits, which was diluted in culture medium in amounts of 0, 0.125, 0.25, 0.5 and 1 mg/ml, was added to each well. […] Cells in each well were then fixed with 70% acetone for 20 min. […] The absorbance of a well treated with ethyl alcohol alone and the absorbance of each well treated with alcohol plus the extract from L. caerulea fruits were compared with that of a control well which was not treated with ethyl alcohol or with the extract from L. caerulea fruits (FIG. 3).
The reduced absorbance increased in a manner that was dependent on the concentrations of the extract from L. caerulea fruits when the extract was administered at up to 0.5 mg/ml to the well treated with ethyl alcohol.
Thus, the degree of restoration of ethyl alcohol-induced cell growth damage by administration of the extract from L. caerulea fruits was calculated according to Equation 1, and the results are given in Table 1, below. […]

For `CCO` [ethyl alcohol], the “effect on cell number” value (HepG2 cells [1]; HepG2, ethyl alcohol at concentrations of 1.5% or higher) was “reduced cell number”, the “effect on cell growth” value (HepG2 cells [1]; HepG2, ethyl alcohol at concentrations of up to 1% (v/v)) was “stimulate cell growth” and the “absorbance reduced in comparison with the well not treated with ethyl alcohol” value (HepG2 cells [2]) was 22%.

Reference: patent publication US20100074975A1, “Pharmaceutical composition for the prevention and treatment of liver disease comprising a lonicera caerulea L. Var. Edulis extract” (priority 2005, published 2010)
